These are literature values, as cited in PMC9516332 (Frontiers in Oncology, 2022).

Like-named read-outs stand apart in the source and are kept apart here.

Settings in all cases: cited from earlier work
Series [1] addresses panel of 255 wild-type kinases (Homo sapiens, UniProt P00533).
For series [2], the target named is panel of 255 wild-type kinases (Homo sapiens, UniProt P05771).
Series [3] addresses panel of 255 wild-type kinases (Homo sapiens, UniProt P49760).
Series [4] addresses panel of 255 wild-type kinases (Homo sapiens, UniProt P50750).
In series [5] the target is T1, panel of 255 wild-type kinases (Homo sapiens, UniProt P53778).
T1 sequence (P53778 1-367): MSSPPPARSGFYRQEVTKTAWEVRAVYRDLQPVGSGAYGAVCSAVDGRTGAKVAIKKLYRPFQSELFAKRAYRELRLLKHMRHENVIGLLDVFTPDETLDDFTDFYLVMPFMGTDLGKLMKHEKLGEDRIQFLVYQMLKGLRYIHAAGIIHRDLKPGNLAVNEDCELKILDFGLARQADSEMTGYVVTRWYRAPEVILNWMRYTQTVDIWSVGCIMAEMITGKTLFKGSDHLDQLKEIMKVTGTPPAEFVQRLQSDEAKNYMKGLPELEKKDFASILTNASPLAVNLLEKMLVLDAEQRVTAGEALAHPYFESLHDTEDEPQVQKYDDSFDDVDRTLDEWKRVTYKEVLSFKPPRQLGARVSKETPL

For series [6], the target named is panel of 255 wild-type kinases (Homo sapiens, UniProt Q14012).
In series [7] the target is panel of 255 wild-type kinases (Homo sapiens, UniProt Q9H0K1).
For series [8], the target named is T2, panel of 255 wild-type kinases (Homo sapiens, UniProt Q9NWZ3).
T2 sequence (Q9NWZ3 1-460): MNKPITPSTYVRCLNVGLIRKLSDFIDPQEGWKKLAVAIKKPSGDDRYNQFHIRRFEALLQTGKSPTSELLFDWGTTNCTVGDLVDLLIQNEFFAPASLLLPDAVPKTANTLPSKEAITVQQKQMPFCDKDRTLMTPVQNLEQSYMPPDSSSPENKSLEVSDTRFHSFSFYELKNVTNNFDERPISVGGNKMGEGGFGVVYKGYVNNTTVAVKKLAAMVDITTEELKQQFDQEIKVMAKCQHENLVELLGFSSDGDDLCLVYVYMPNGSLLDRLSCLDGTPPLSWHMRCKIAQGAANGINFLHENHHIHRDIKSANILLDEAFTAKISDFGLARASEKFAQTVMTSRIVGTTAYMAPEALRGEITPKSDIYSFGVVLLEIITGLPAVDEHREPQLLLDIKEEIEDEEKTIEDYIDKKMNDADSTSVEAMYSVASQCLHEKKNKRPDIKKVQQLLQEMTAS

In series [9] the target is T3, panel of 255 wild-type kinases (Homo sapiens, UniProt Q9NZJ5).
T3 sequence (Q9NZJ5 30-1116): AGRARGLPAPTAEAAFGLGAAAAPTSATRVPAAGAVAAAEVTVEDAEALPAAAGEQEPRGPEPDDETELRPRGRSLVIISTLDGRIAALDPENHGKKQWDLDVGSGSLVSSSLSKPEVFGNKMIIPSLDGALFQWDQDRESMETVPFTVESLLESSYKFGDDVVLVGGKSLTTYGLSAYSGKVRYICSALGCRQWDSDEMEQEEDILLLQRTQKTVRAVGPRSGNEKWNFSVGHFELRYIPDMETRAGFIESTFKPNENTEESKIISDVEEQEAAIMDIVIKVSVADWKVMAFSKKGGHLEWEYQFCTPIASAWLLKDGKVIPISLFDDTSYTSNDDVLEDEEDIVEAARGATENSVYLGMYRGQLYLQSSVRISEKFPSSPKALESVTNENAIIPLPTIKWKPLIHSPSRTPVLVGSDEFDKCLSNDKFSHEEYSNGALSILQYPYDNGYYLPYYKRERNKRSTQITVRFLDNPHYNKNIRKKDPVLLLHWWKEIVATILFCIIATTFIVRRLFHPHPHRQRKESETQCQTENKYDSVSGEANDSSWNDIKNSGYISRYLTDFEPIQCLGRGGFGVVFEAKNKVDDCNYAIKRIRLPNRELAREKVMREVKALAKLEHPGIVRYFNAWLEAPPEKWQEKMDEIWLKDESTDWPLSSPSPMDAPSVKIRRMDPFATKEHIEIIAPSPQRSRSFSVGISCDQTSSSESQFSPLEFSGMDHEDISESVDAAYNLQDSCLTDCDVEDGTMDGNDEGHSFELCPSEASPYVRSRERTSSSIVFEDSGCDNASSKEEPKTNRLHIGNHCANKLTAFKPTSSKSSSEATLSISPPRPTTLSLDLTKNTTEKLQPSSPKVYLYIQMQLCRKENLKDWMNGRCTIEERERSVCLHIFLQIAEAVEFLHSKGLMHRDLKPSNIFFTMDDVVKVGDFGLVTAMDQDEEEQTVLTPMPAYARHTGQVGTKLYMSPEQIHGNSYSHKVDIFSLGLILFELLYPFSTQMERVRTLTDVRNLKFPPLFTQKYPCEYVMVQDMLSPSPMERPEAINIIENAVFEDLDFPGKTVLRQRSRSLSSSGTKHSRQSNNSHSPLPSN

In series [10] the target is panel of 255 wild-type kinases (Homo sapiens, UniProt Q9UK32).
Where [11] appears, read: kinase EGFR, 1 µmol/L single concentration, ref DOI: 10.1371/journal.pone.0092146.
Setting [12] is: kinase PKCβ1, 1 µmol/L single concentration, ref DOI: 10.1371/journal.pone.0092146.
Setting [13] is: kinase CLK2, 1 µmol/L single concentration, ref DOI: 10.1371/journal.pone.0092146.
[14] abbreviates: CDK9/CycT1 kinase assay, 1 µmol/L single concentration, ref DOI: 10.1371/journal.pone.0092146.
Setting [15] is: p38γ, 1 µmol/L single concentration, ref DOI: 10.1371/journal.pone.0092146.
The mark [16] stands for this setting: CaMK1α kinase assay, 1 µmol/L single concentration, ref DOI: 10.1371/journal.pone.0092146.
[17] abbreviates: kinase QIK, 1 µmol/L single concentration, ref DOI: 10.1371/journal.pone.0092146.
Setting [18] is: kinase IRAK4, 1 µmol/L single concentration, ref DOI: 10.1371/journal.pone.0092146.
The mark [19] stands for this setting: kinase PEK, 1 µmol/L single concentration, ref DOI: 10.1371/journal.pone.0092146.
Setting [20] is: kinase RSK4, 1 µmol/L single concentration, ref DOI: 10.1371/journal.pone.0092146.
The mark [21] stands for this setting: kinase EGFR, 1 µmol/L single concentration, ref DOI: 10.1158/1535-7163.MCT-18-0877.
Setting [22] is: kinase PKCβ1, 1 µmol/L single concentration, ref DOI: 10.1158/1535-7163.MCT-18-0877.
The mark [23] stands for this setting: kinase CLK2, 1 µmol/L single concentration, ref DOI: 10.1158/1535-7163.MCT-18-0877.
The mark [24] stands for this setting: CDK9/CycT1 kinase assay, 1 µmol/L single concentration, ref DOI: 10.1158/1535-7163.MCT-18-0877.
[25] abbreviates: p38γ, 1 µmol/L single concentration, ref DOI: 10.1158/1535-7163.MCT-18-0877.
Where [26] appears, read: CaMK1α kinase assay, 1 µmol/L single concentration, ref DOI: 10.1158/1535-7163.MCT-18-0877.
Setting [27] is: kinase QIK, 1 µmol/L single concentration, ref DOI: 10.1158/1535-7163.MCT-18-0877.
Setting [28] is: kinase IRAK4, 1 µmol/L single concentration, ref DOI: 10.1158/1535-7163.MCT-18-0877.
The mark [29] stands for this setting: kinase PEK, 1 µmol/L single concentration, ref DOI: 10.1158/1535-7163.MCT-18-0877.
The mark [30] stands for this setting: kinase RSK4, 1 µmol/L single concentration, ref DOI: 10.1158/1535-7163.MCT-18-0877.

Consider `CC(=O)Nc1cccc(-n2c(=O)n(C3CC3)c(=O)c3c(Nc4ccc(I)cc4F)n(C)c(=O)c(C)c32)c1` [trametinib], for which the “%-inhibition at 1 µmol/L, EGFR” value in series [1] (setting [11]) is reported as -0.0959%. Moreover, the “%-inhibition at 1 µmol/L, PKCβ1” value in [2] (setting [12]) is on record as -3.47%. Besides, the “%-inhibition at 1 µmol/L, CLK2” value in series [3] (setting [13]) is reported as -5%. The “%-inhibition CDK9/CycT1” value in series [4] (setting [14]) was -2.31%. Also, in [5] (setting [15]), the “%-inhibition, p38γ” value is recorded as 0.684%. Also, the “%-inhibition CaMK1α” value in series [6] (setting [16]) is listed as -2%. Moreover, the “%-inhibition at 1 µmol/L, QIK” value in series [7] (setting [17]) is on record as -4.66%. The “%-inhibition at 1 µmol/L, IRAK4” value in series [8] (setting [18]) was -5%. Also, in series [9] (setting [19]), the “%-inhibition at 1 µmol/L, PEK” value is 1.13%. The “%-inhibition at 1 µmol/L, RSK4” value in series [10] (setting [20]) was 0.208%.
Regarding `CCCS(=O)(=O)Nc1ccc(F)c(C(=O)c2c[nH]c3ncc(-c4ccc(Cl)cc4)cc23)c1F` [vemurafenib], in [1] (setting [11]), the “%-inhibition at 1 µmol/L, EGFR” value was 7%. Also, the “%-inhibition at 1 µmol/L, PKCβ1” value in [2] (setting [12]) is -3.81%. The “%-inhibition at 1 µmol/L, CLK2” value in series [3] (setting [13]) was -13%. Further, the “%-inhibition CDK9/CycT1” value in [4] (setting [14]) is reported as 1.33%. Moreover, the “%-inhibition, p38γ” value in series [5] (setting [15]) is listed as -0.299%. The “%-inhibition CaMK1α” value in series [6] (setting [16]) was -3.18%. Besides, the “%-inhibition at 1 µmol/L, QIK” value in series [7] (setting [17]) was 6%. Besides, in [8] (setting [18]), the “%-inhibition at 1 µmol/L, IRAK4” value is on record as -4.29%. The “%-inhibition at 1 µmol/L, PEK” value in series [9] (setting [19]) is listed as 11%. The “%-inhibition at 1 µmol/L, RSK4” value in series [10] (setting [20]) is -3%.
Consider `O=C(c1ccc(F)c(F)c1Nc1ccc(I)cc1F)N1CC(O)([C@@H]2CCCCN2)C1` [cobimetinib], for which, in series [1] (setting [21]), the “%-inhibition at 1 µmol/L, EGFR” value is 8%. In addition, the “%-inhibition at 1 µmol/L, PKCβ1” value in series [2] (setting [22]) was -4.35%. Besides, in series [3] (setting [23]), the “%-inhibition at 1 µmol/L, CLK2” value is 0.147%. For the same compound, in series [4] (setting [24]), the “%-inhibition CDK9/CycT1” value is listed as 1.36%. The “%-inhibition, p38γ” value in series [5] (setting [25]) is listed as 2%. For the same compound, the “%-inhibition CaMK1α” value in series [6] (setting [26]) was 9%. Besides, in series [7] (setting [27]), the “%-inhibition at 1 µmol/L, QIK” value is given as 2.37%. In addition, the “%-inhibition at 1 µmol/L, IRAK4” value in [8] (setting [28]) was -4.31%. For the same compound, the “%-inhibition at 1 µmol/L, PEK” value in series [9] (setting [29]) is recorded as 5%. In addition, in series [10] (setting [30]), the “%-inhibition at 1 µmol/L, RSK4” value was 5.52%.
`CC#CC(=O)N1CCC[C@H]1c1nc(-c2ccc(C(=O)Nc3ccccn3)cc2)c2c(N)nccn12` [acalabrutinib]: the “%-inhibition at 1 µmol/L, EGFR” value in series [1] (setting [21]) is 19%. The “%-inhibition at 1 µmol/L, PKCβ1” value in series [2] (setting [22]) is reported as -11%. Also, the “%-inhibition at 1 µmol/L, CLK2” value in [3] (setting [23]) is -7%. In series [4] (setting [24]), the “%-inhibition CDK9/CycT1” value is on record as 15%. In series [5] (setting [25]), the “%-inhibition, p38γ” value is -1.74%. In series [6] (setting [26]), the “%-inhibition CaMK1α” value is reported as -4.29%. Moreover, the “%-inhibition at 1 µmol/L, QIK” value in series [7] (setting [27]) is reported as -0.215%. Besides, in series [8] (setting [28]), the “%-inhibition at 1 µmol/L, IRAK4” value is -6.55%. The “%-inhibition at 1 µmol/L, PEK” value in [9] (setting [29]) is 8%. The “%-inhibition at 1 µmol/L, RSK4” value in series [10] (setting [30]) was 4.21%.
On to `COc1cc(N2CCC(N3CCN(C)CC3)CC2)ccc1Nc1ncc(Cl)c(Nc2ccccc2P(C)(C)=O)n1` [brigatinib], for which, in [1], the “%-inhibition at 1 µmol/L, EGFR” value is 97%. Moreover, in [2], the “%-inhibition at 1 µmol/L, PKCβ1” value is 7.42%. Further, in series [3], the “%-inhibition at 1 µmol/L, CLK2” value is 91%. The “%-inhibition CDK9/CycT1” value in [4] is listed as 5.35%. Also, in [5], the “%-inhibition, p38γ” value is on record as 3%. Besides, in series [6], the “%-inhibition CaMK1α” value is reported as 28%. Moreover, in series [7], the “%-inhibition at 1 µmol/L, QIK” value is 100%. Besides, the “%-inhibition at 1 µmol/L, IRAK4” value in series [8] is 46%. Also, in series [9], the “%-inhibition at 1 µmol/L, PEK” value was 18%. Besides, the “%-inhibition at 1 µmol/L, RSK4” value in [10] is reported as 98%.
